# In patent US8710065B2, “Tricyclic inhibitors of kinases” (AbbVie Inc., priority 2011, dated 2014):
# Target: T1, GST-tagged-Wee1 kinase (Homo sapiens, UniProt P30291)
# T1 construct: purchased Carnabio (Carna Biosciences) 05-177
# Test: Wee1 time-resolved fluorescence equilibrium binding assay (displacement of Oregon Green-labeled ATP-competitive kinase probe)
# Details: read-out: Wee-1 inhibition (Ki)
# Method: Wee1 kinase was assayed using a time-resolved fluorescence equilibrium binding assay monitoring displacement of a rapidly reversible Oregon Green-labeled ATP-competitive kinase probe (N-(2-(2-(2-(4-(4-(5-chloro-4-(2-(1-hydroxycyclobutyl)thiazol-5-yl)-1H-pyrrolo[2,3-b]pyridin-2-yl)phenyl)piperazin-1-yl)ethoxy)ethoxy)ethyl)-2′,7′-difluoro-3′,6′-dihydroxy-3-oxo-3H-spiro[isobenzofuran-1,9′-xanthene]-5-carboxamide) by competitive Wee1 inhibitors.
# Table 1 depicts enzyme inhibition data (Ki) for exemplary compounds.
# T1 sequence (P30291 whole entry): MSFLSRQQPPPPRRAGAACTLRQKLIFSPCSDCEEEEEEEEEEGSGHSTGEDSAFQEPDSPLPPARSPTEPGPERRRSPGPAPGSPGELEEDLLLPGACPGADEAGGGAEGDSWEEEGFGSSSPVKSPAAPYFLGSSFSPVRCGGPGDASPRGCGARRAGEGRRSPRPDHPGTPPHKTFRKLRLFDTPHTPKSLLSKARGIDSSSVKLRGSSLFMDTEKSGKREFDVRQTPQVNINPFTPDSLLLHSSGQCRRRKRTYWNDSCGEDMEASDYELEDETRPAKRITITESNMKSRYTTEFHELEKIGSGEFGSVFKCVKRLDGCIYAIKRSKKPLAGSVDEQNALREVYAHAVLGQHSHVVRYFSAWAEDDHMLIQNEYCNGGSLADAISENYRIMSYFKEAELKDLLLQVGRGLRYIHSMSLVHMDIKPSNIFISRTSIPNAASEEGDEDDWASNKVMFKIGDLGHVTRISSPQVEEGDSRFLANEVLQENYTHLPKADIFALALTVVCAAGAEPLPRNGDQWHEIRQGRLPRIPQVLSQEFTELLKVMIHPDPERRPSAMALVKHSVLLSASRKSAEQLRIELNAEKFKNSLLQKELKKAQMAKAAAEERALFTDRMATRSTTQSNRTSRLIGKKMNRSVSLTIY
row,SMILES,Ki [nM]
1,"CC1(C)CN(Cc2ccccc2C#N)Cc2cc(Nc3ncc4c(=O)n(-c5ccccc5Cl)c5nccn5c4n3)ccc21 [Example 356, 2-{[7-{[6-(2-chlorophenyl)-5-oxo-5,6-dihydroimidazo[1,2-a]pyrimido[5,4-e]pyrimidin-2-yl]amino}-4,4-dimethyl-3,4-dihydroisoquinolin-2(1H)-yl]methyl}benzonitrile]",10 to 100
2,"CCN(CC)CCCOc1ccc(Nc2ncc3c(=O)n(-c4ccccc4Cl)c4nccn4c3n2)cc1F [Example 50, 6-(2-chlorophenyl)-2-({4-[3-(diethylamino)propoxy]-3-fluorophenyl}amino)imidazo[1,2-a]pyrimido[5,4-e]pyrimidin-5(6H)-one]",< 10
3,"CN1Cc2cc(Nc3ncc4c(=S)n(-c5ccccc5Cl)c5nccn5c4n3)ccc2C2(CC2)C1 [Example 355, 6-(2-chlorophenyl)-2-[(2′-methyl-2′,3′-dihydro-1′H-spiro[cyclopropane-1,4′-isoquinolin]-7′-yl)amino]imidazo[1,2-a]pyrimido[5,4-e]pyrimidine-5(6H)-thione]",< 10
4,"CN1C(C)(C)c2ccc(Nc3ncc4c(=O)n(-c5ccccc5Cl)c5nccn5c4n3)cc2C1(C)C [Example 147, 6-(2-chlorophenyl)-2-[(1,1,2,3,3-pentamethyl-2,3-dihydro-1H-isoindol-5-yl)amino]imidazo[1,2-a]pyrimido[5,4-e]pyrimidin-5(6H)-one]",< 10
5,"CN1CCN(c2ccc(Nc3ncc4c(=O)n(-c5c(Cl)cc(F)cc5Cl)c5nccn5c4n3)cc2)CC1 [Example 123, 6-(2,6-dichloro-4-fluorophenyl)-2-{[4-(4-methylpiperazin-1-yl)phenyl]amino}imidazo[1,2-a]pyrimido[5,4-e]pyrimidin-5(6H)-one]",< 10
6,"O=c1c2cnc(Nc3ccc(C4CCCCC4)cc3)nc2n2ccnc2n1-c1ccccc1Cl [Example 7, 6-(2-chlorophenyl)-2-[(4-cyclohexylphenyl)amino]imidazo[1,2-a]pyrimido[5,4-e]pyrimidin-5(6H)-one]",10 to 100
7,"CS(=O)(=O)N1Cc2cc(Nc3ncc4c(=O)n(-c5c(Cl)cc(F)cc5Cl)c5nccn5c4n3)ccc2C2(CC2)C1 [Example 172, 6-(2,6-dichloro-4-fluorophenyl)-2-{[2′-(methylsulfonyl)-2′,3′-dihydro-1′H-spiro[cyclopropane-1,4′-isoquinolin]-7′-yl]amino}imidazo[1,2-a]pyrimido[5,4-e]pyrimidin-5(6H)-one]",< 10
8,"O=c1c2cnc(Nc3ccc(C4CCCCN4)cc3)nc2n2ccnc2n1-c1ccccc1Cl (stereo not drawn) [Example 70, 6-(2-chlorophenyl)-2-{[4-(piperidin-2-yl)phenyl]amino}imidazo[1,2-a]pyrimido[5,4-e]pyrimidin-5(6H)-one]",< 10
9,"CN1Cc2cc(Nc3ncc4c(=O)n(-c5ccccc5Cl)c5nccn5c4n3)ccc2C1(C)C [Example 146, 6-(2-chlorophenyl)-2-[(1,1,2-trimethyl-2,3-dihydro-1H-isoindol-5-yl)amino]imidazo[1,2-a]pyrimido[5,4-e]pyrimidin-5(6H)-one]",< 10
10,"CCNC(=O)c1ccc(Nc2ncc3c(=O)n(-c4ccccc4Cl)c4nccn4c3n2)cc1 [Example 47, 4-{[6-(2-chlorophenyl)-5-oxo-5,6-dihydroimidazo[1,2-a]pyrimido[5,4-e]pyrimidin-2-yl]amino}-N-ethylbenzamide]",10 to 100
11,"Cc1cc(O)ccc1-n1c(=O)c2cnc(Nc3ccc4c(c3)CNCC43CC3)nc2n2ccnc12 [Example 279, 2-(2′,3′-dihydro-1′H-spiro[cyclopropane-1,4′-isoquinolin]-7′-ylamino)-6-(4-hydroxy-2-methylphenyl)imidazo[1,2-a]pyrimido[5,4-e]pyrimidin-5(6H)-one]",< 10
12,CC(C)CC(N(C)C)C1(c2ccc(Nc3ncc4c(=O)n(-c5c(Cl)cccc5Cl)c5nccn5c4n3)cc2)CCC1 (stereo not drawn) [Example 196],< 10
13,"O=c1c2cnc(Nc3ccc(OCCN4CCOCC4)cc3)nc2n2ccnc2n1-c1ccccc1Cl [Example 36, 6-(2-chlorophenyl)-2-({4-[2-(morpholin-4-yl)ethoxy]phenyl}amino)imidazo[1,2-a]pyrimido[5,4-e]pyrimidin-5(6H)-one]",10 to 100
14,"Cc1cc(Nc2ncc3c(=O)n(-c4c(Cl)cccc4Cl)c4nccn4c3n2)ccc1N1CCCNCC1 [Example 345, 2-{[4-(1,4-diazepan-1-yl)-3-methylphenyl]amino}-6-(2,6-dichlorophenyl)imidazo[1,2-a]pyrimido[5,4-e]pyrimidin-5(6H)-one]",10 to 100
15,"C[C@@H]1CCCN1CCc1ccc(Nc2ncc3c(=O)n(-c4ccccc4Cl)c4nccn4c3n2)cc1 [Example 359, 6-(2-chlorophenyl)-2-[(4-{2-[(2R)-2-methylpyrrolidin-1-yl]ethyl}phenyl)amino]imidazo[1,2-a]pyrimido[5,4-e]pyrimidin-5(6H)-one]",10 to 100
16,"CN(C)C1Cc2ccc(Nc3ncc4c(=O)n(-c5c(Cl)cc(F)cc5Cl)c5nccn5c4n3)cc2C1 (stereo not drawn) [Example 126, 6-(2,6-dichloro-4-fluorophenyl)-2-{[2-(dimethylamino)-2,3-dihydro-1H-inden-5-yl]amino}imidazo[1,2-a]pyrimido[5,4-e]pyrimidin-5(6H)-one]",< 10
17,"O=c1c2cnc(Nc3ccc(N4CCOCC4)cc3)nc2n2ccnc2n1-c1c(Cl)cccc1Cl [Example 169, 6-(2,6-dichlorophenyl)-2-{[4-(morpholin-4-yl)phenyl]amino}imidazo[1,2-a]pyrimido[5,4-e]pyrimidin-5(6H)-one]",< 10
18,"Cc1cc(Nc2ncc3c(=O)n(-c4ccccc4Cl)c4nccn4c3n2)ccc1N1CCCNCC1 [Example 105, 6-(2-chlorophenyl)-2-{[4-(1,4-diazepan-1-yl)-3-methylphenyl]amino}imidazo[1,2-a]pyrimido[5,4-e]pyrimidin-5(6H)-one]",< 10
19,"O=c1c2cnc(Nc3ccc(N4CCN5CCCC5C4)cc3)nc2n2ccnc2n1-c1c(Cl)cccc1Cl (stereo not drawn) [Example 116, 6-(2,6-dichlorophenyl)-2-{[4-(hexahydropyrrolo[1,2-a]pyrazin-2(1H)-yl)phenyl]amino}imidazo[1,2-a]pyrimido[5,4-e]pyrimidin-5(6H)-one]",< 10
20,"O=c1c2cnc(Nc3ccc(N4CCN(Cc5cccc(Cl)c5)CC4)cc3)nc2n2ccnc2n1-c1ccccc1Cl [Example 63, 2-({4-[4-(3-chlorobenzyl)piperazin-1-yl]phenyl}amino)-6-(2-chlorophenyl)imidazo[1,2-a]pyrimido[5,4-e]pyrimidin-5(6H)-one]",10 to 100
21,"CN(C)C1CCC(NC(=O)c2ccc(Nc3ncc4c(=O)n(-c5c(Cl)cccc5Cl)c5nccn5c4n3)cc2)CC1 (stereo not drawn) [Example 238, 4-{[6-(2,6-dichlorophenyl)-5-oxo-5,6-dihydroimidazo[1,2-a]pyrimido[5,4-e]pyrimidin-2-yl]amino}-N-[4-(dimethylamino)cyclohexyl]benzamide]",< 10
22,"O=c1c2cnc(Nc3ccc(-c4nccs4)cc3)nc2n2ccnc2n1-c1ccccc1Cl [Example 350, 6-(2-chlorophenyl)-2-{[4-(1,3-thiazol-2-yl)phenyl]amino}imidazo[1,2-a]pyrimido[5,4-e]pyrimidin-5(6H)-one]",10 to 100
23,"Cc1cnc2n(-c3ccccc3Cl)c(=O)c3cnc(Nc4ccc(N5CCN(C)CC5)cc4)nc3n12 [Example 25, 6-(2-chlorophenyl)-9-methyl-2-{[4-(4-methylpiperazin-1-yl)phenyl]amino}imidazo[1,2-a]pyrimido[5,4-e]pyrimidin-5(6H)-one]",< 10
24,"O=c1c2cnc(Nc3ccc(-c4cn5c(n4)SCC5)cc3)nc2n2ccnc2n1-c1ccccc1Cl [Example 220, 6-(2-chlorophenyl)-2-{[4-(2,3-dihydroimidazo[2,1-b][1,3]thiazol-6-yl)phenyl]amino}imidazo[1,2-a]pyrimido[5,4-e]pyrimidin-5(6H)-one]",10 to 100
25,"CC(C)(C)OC(=O)N1CCc2ccc(Nc3ncc4c(=O)n(-c5ccccc5Cl)c5nccn5c4n3)cc2C1 [Example 20, tert-butyl 7-{[6-(2-chlorophenyl)-5-oxo-5,6-dihydroimidazo[1,2-a]pyrimido[5,4-e]pyrimidin-2-yl]amino}-3,4-dihydroisoquinoline-2(1H)-carboxylate]",10 to 100
26,"O=c1c2cnc(Nc3ccc(N4CCC(N5CCOCC5)CC4)cc3)nc2n2ccnc2n1-c1ccccc1Cl [Example 236, 6-(2-chlorophenyl)-2-({4-[4-(morpholin-4-yl)piperidin-1-yl]phenyl}amino)imidazo[1,2-a]pyrimido[5,4-e]pyrimidin-5(6H)-one]",< 10
27,"CN1C(C)(C)c2ccc(Nc3ncc4c(=O)n(-c5c(F)cccc5Cl)c5nccn5c4n3)cc2C1(C)C [Example 210, 6-(2-chloro-6-fluorophenyl)-2-[(1,1,2,3,3-pentamethyl-2,3-dihydro-1H-isoindol-5-yl)amino]imidazo[1,2-a]pyrimido[5,4-e]pyrimidin-5(6H)-one]",< 10
28,"O=c1c2cnc(Nc3ccc4c(c3)CC(N3CC[C@H](F)C3)C4)nc2n2ccnc2n1-c1c(F)cccc1Cl (stereo partly drawn) [Example 256, 6-(2-chloro-6-fluorophenyl)-2-({2-[(3S)-3-fluoropyrrolidin-1-yl]-2,3-dihydro-1H-inden-5-yl}amino)imidazo[1,2-a]pyrimido[5,4-e]pyrimidin-5(6H)-one]",< 10
29,"O=c1c2cnc(Nc3ccc4c(c3)CN(CCF)CC43CC3)nc2n2ccnc2n1-c1c(F)cccc1Cl [Example 225, 6-(2-chloro-6-fluorophenyl)-2-{[2′-(2-fluoroethyl)-2′,3′-dihydro-1′H-spiro[cyclopropane-1,4′-isoquinolin]-7′-yl]amino}imidazo[1,2-a]pyrimido[5,4-e]pyrimidin-5(6H)-one]",< 10
30,"CC(C)[C@H]1CN(c2ccc(Nc3ncc4c(=O)n(-c5c(Cl)cccc5Cl)c5nccn5c4n3)cc2)CCN1 [Example 195, 6-(2,6-dichlorophenyl)-2-({4-[(3S)-3-(propan-2-yl)piperazin-1-yl]phenyl}amino)imidazo[1,2-a]pyrimido[5,4-e]pyrimidin-5(6H)-one]",< 10
